The source of these data is patent US20230123334A1, “AMINO LIPID COMPOUND, PREPARATION METHOD THEREFOR, AND APPLICATION THEREOF” (SHENZHEN SHENXIN BIOTECHNOLOGY CO., LTD., priority 2020, published 2023).

The test relates to HEK293 cells. Put plainly: Preliminary screening as DNA vectors, GFP transfection of HEK293 cells. Type of test: cell-based. To be noted: amino lipid/DOPE liposome with 75 ng plasmid DNA (psin-EGFP-IRES-Puro); number of GFP-expressing cells divided by total nuclei (Hoechst). In short, it runs like this:
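HEK293 cells in DMEM/10% FBS transfected with 75 ng EGFP plasmid per well complexed with amino lipid/DOPE liposomes in pH 5.6 sodium acetate. Hoechst nuclear stain added 20-24 h post-transfection, then cells cultured another 20-24 h. Confocal imaging gives GFP-positive cells as % of total nuclei.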
Consider `CCCCCCCCCCCCCCCNc1nc(NCCN2CCOCC2)nc(SCCCCCCCCCCCCCC)n1` [S14N15 D2], for which the “Absolute DNA transfection efficiency in HEK293 cells” value (“Absolute DNA transfection efficiency” for short) was 0.1%. To `CCCCCCCCCCCCCCCNc1nc(NCCN2CCCC2)nc(SCCCCCCCCCCCCCC)n1` [S14N15 D3] belongs 1.0%; to `CCCCCCCCCCCCCCCNc1nc(NCCN2CCCCC2)nc(SCCCCCCCCCCCCCC)n1` [S14N15 D4], 0.4%. With `CCCCCCCCCCCCCCCNc1nc(NCCN2CCN(C)CC2)nc(SCCCCCCCCCCCCCC)n1` [S14N15 D5] the figure was 0.4%. With `CCCCCCCCCCCCCCCNc1nc(NCCCN(C)C)nc(SCCCCCCCCCCCCCC)n1` [S14N15 D6], the “Absolute DNA transfection efficiency” value is 0.8%. With `CCCCCCCCCCCCCCCNc1nc(NCCN(CC)CC)nc(SCCCCCCCCCCCCCC)n1` [S14N15 D7] the figure was 1.1%. With `CCCCCCCCCCCCCCCNc1nc(NCCCN2CCOCC2)nc(SCCCCCCCCCCCCCC)n1` [S14N15 D8] the figure was 0.3%; with `CCCCCCCCCCCCCCCNc1nc(NCCCN2CCN(C)CC2)nc(SCCCCCCCCCCCCCC)n1` [S14N15 D9], 0.7%. In the case of `CCCCCCCCCCCCCCCNc1nc(NCC2CCN(C)CC2)nc(SCCCCCCCCCCCCCC)n1` [S14N15 D10], the “Absolute DNA transfection efficiency” value stood at 0.7%.

For the molecule `CCCCCCCCCCCCCCCCNc1nc(NCCN(C)C)nc(SCCCCCCCCCCCCCC)n1` [S14N16 D1], the “Absolute DNA transfection efficiency” value is recorded as 0.7%. To `CCCCCCCCCCCCCCCCNc1nc(NCCN2CCOCC2)nc(SCCCCCCCCCCCCCC)n1` [S14N16 D2] belongs 0.0%. With `CCCCCCCCCCCCCCCCNc1nc(NCCN2CCCC2)nc(SCCCCCCCCCCCCCC)n1` [S14N16 D3] the figure was 1.3%; with `CCCCCCCCCCCCCCCCNc1nc(NCCN2CCCCC2)nc(SCCCCCCCCCCCCCC)n1` [S14N16 D4], 1.9%; with `CCCCCCCCCCCCCCCCNc1nc(NCCN2CCN(C)CC2)nc(SCCCCCCCCCCCCCC)n1` [S14N16 D5], 0.9%. `CCCCCCCCCCCCCCCCNc1nc(NCCCN(C)C)nc(SCCCCCCCCCCCCCC)n1` [S14N16 D6]: the “Absolute DNA transfection efficiency” value was determined as 0.8%. With `CCCCCCCCCCCCCCCCNc1nc(NCCN(CC)CC)nc(SCCCCCCCCCCCCCC)n1` [S14N16 D7] the figure was 1.3%; with `CCCCCCCCCCCCCCCCNc1nc(NCCCN2CCOCC2)nc(SCCCCCCCCCCCCCC)n1` [S14N16 D8], 0.1%; with `CCCCCCCCCCCCCCCCNc1nc(NCCCN2CCN(C)CC2)nc(SCCCCCCCCCCCCCC)n1` [S14N16 D9], 0.9%. To `CCCCCCCCCCCCCCCCNc1nc(NCC2CCN(C)CC2)nc(SCCCCCCCCCCCCCC)n1` [S14N16 D10] belongs 0.7%; to `CCCCCCCCCCCCCCCCCCNc1nc(NCCN(C)C)nc(SCCCCCCCCCCCCCC)n1` [S14N18 D1], 0.9%; to `CCCCCCCCCCCCCCCCCCNc1nc(NCCN2CCOCC2)nc(SCCCCCCCCCCCCCC)n1` [S14N18 D2], 0.0%. To `CCCCCCCCCCCCCCCCCCNc1nc(NCCN2CCCC2)nc(SCCCCCCCCCCCCCC)n1` [S14N18 D3] belongs 1.7%; to `CCCCCCCCCCCCCCCCCCNc1nc(NCCN2CCCCC2)nc(SCCCCCCCCCCCCCC)n1` [S14N18 D4], 0.7%. Consider `CCCCCCCCCCCCCCCCCCNc1nc(NCCN2CCN(C)CC2)nc(SCCCCCCCCCCCCCC)n1` [S14N18 D5], for which the “Absolute DNA transfection efficiency” value was 0.6%.

On to `CCCCCCCCCCCCCCCCCCNc1nc(NCCCN(C)C)nc(SCCCCCCCCCCCCCC)n1` [S14N18 D6], for which the “Absolute DNA transfection efficiency” value came out at 0.9%.

Take `CCCCCCCCCCCCCCCCCCNc1nc(NCCN(CC)CC)nc(SCCCCCCCCCCCCCC)n1` [S14N18 D7]: the “Absolute DNA transfection efficiency” value came to 1.2%. Turning to `CCCCCCCCCCCCCCCCCCNc1nc(NCCCN2CCOCC2)nc(SCCCCCCCCCCCCCC)n1` [S14N18 D8], the “Absolute DNA transfection efficiency” value was 0.1%. Take `CCCCCCCCCCCCCCCCCCNc1nc(NCCCN2CCN(C)CC2)nc(SCCCCCCCCCCCCCC)n1` [S14N18 D9]: the “Absolute DNA transfection efficiency” value is recorded as 0.3%.

Regarding `CCCCCCCCCCCCCCCCCCNc1nc(NCC2CCN(C)CC2)nc(SCCCCCCCCCCCCCC)n1` [S14N18 D10], the “Absolute DNA transfection efficiency” value was found to be 0.1%. With `CCCCCCCCCCCCCCSc1nc(NCCN(C)C)nc(N(CCCCCCCCCCCC)CCCCCCCCCCCC)n1` [S14^2N12 D1], the “Absolute DNA transfection efficiency” value was determined as 0.3%. For the molecule `CCCCCCCCCCCCCCSc1nc(NCCN2CCOCC2)nc(N(CCCCCCCCCCCC)CCCCCCCCCCCC)n1` [S14^2N12 D2], the “Absolute DNA transfection efficiency” value is given as 0.0%. To `CCCCCCCCCCCCCCSc1nc(NCCN2CCCC2)nc(N(CCCCCCCCCCCC)CCCCCCCCCCCC)n1` [S14^2N12 D3] belongs 0.2%; to `CCCCCCCCCCCCCCSc1nc(NCCN2CCCCC2)nc(N(CCCCCCCCCCCC)CCCCCCCCCCCC)n1` [S14^2N12 D4], 0.0%; to `CCCCCCCCCCCCCCSc1nc(NCCN2CCN(C)CC2)nc(N(CCCCCCCCCCCC)CCCCCCCCCCCC)n1` [S14^2N12 D5], 0.0%. To `CCCCCCCCCCCCCCSc1nc(NCCCN(C)C)nc(N(CCCCCCCCCCCC)CCCCCCCCCCCC)n1` [S14^2N12 D6] belongs 0.2%; to `CCCCCCCCCCCCCCSc1nc(NCCN(CC)CC)nc(N(CCCCCCCCCCCC)CCCCCCCCCCCC)n1` [S14^2N12 D7], 0.1%; to `CCCCCCCCCCCCCCSc1nc(NCCCN2CCOCC2)nc(N(CCCCCCCCCCCC)CCCCCCCCCCCC)n1` [S14^2N12 D8], 0.0%. With `CCCCCCCCCCCCCCSc1nc(NCCCN2CCN(C)CC2)nc(N(CCCCCCCCCCCC)CCCCCCCCCCCC)n1` [S14^2N12 D9] the figure was 0.0%; with `CCCCCCCCCCCCCCSc1nc(NCC2CCN(C)CC2)nc(N(CCCCCCCCCCCC)CCCCCCCCCCCC)n1` [S14^2N12 D10], 0.0%.

`CCCCCCCCCCCCCCCSc1nc(NCCCCCC)nc(NCCN(C)C)n1` [S15N6 D1]: the “Absolute DNA transfection efficiency” value was found to be 21.2%.

Take `CCCCCCCCCCCCCCCSc1nc(NCCCCCC)nc(NCCN2CCOCC2)n1` [S15N6 D2]: the “Absolute DNA transfection efficiency” value amounted to 34.1%. On to `CCCCCCCCCCCCCCCSc1nc(NCCCCCC)nc(NCCN2CCCC2)n1` [S15N6 D3], for which the “Absolute DNA transfection efficiency” value turned out to be 32.4%. Take `CCCCCCCCCCCCCCCSc1nc(NCCCCCC)nc(NCCN2CCCCC2)n1` [S15N6 D4]: the “Absolute DNA transfection efficiency” value turned out to be 21.6%. As to `CCCCCCCCCCCCCCCSc1nc(NCCCCCC)nc(NCCN2CCN(C)CC2)n1` [S15N6 D5], the “Absolute DNA transfection efficiency” value was 14.9%. In the case of `CCCCCCCCCCCCCCCSc1nc(NCCCCCC)nc(NCCCN(C)C)n1` [S15N6 D6], the “Absolute DNA transfection efficiency” value turned out to be 34.2%.

Take `CCCCCCCCCCCCCCCSc1nc(NCCCCCC)nc(NCCN(CC)CC)n1` [S15N6 D7]: the “Absolute DNA transfection efficiency” value turned out to be 5.1%. To `CCCCCCCCCCCCCCCSc1nc(NCCCCCC)nc(NCCCN2CCOCC2)n1` [S15N6 D8] belongs 19.8%. As to `CCCCCCCCCCCCCCCSc1nc(NCCCCCC)nc(NCCCN2CCN(C)CC2)n1` [S15N6 D9], the “Absolute DNA transfection efficiency” value amounted to 15.4%. With `CCCCCCCCCCCCCCCSc1nc(NCCCCCC)nc(NCC2CCN(C)CC2)n1` [S15N6 D10] the figure was 26.5%; with `CCCCCCCCCCCCCCCSc1nc(NCCCCCCC)nc(NCCN(C)C)n1` [S15N7 D1], 18.2%; with `CCCCCCCCCCCCCCCSc1nc(NCCCCCCC)nc(NCCN2CCOCC2)n1` [S15N7 D2], 23.0%.

Turning to `CCCCCCCCCCCCCCCSc1nc(NCCCCCCC)nc(NCCN2CCCC2)n1` [S15N7 D3], the “Absolute DNA transfection efficiency” value amounted to 19.7%. In the case of `CCCCCCCCCCCCCCCSc1nc(NCCCCCCC)nc(NCCN2CCCCC2)n1` [S15N7 D4], the “Absolute DNA transfection efficiency” value was 8.1%. With `CCCCCCCCCCCCCCCSc1nc(NCCCCCCC)nc(NCCN2CCN(C)CC2)n1` [S15N7 D5] the figure was 12.9%. To `CCCCCCCCCCCCCCCSc1nc(NCCCCCCC)nc(NCCCN(C)C)n1` [S15N7 D6] belongs 32.1%. With `CCCCCCCCCCCCCCCSc1nc(NCCCCCCC)nc(NCCN(CC)CC)n1` [S15N7 D7] the figure was 13.3%.

In the case of `CCCCCCCCCCCCCCCSc1nc(NCCCCCCC)nc(NCCCN2CCOCC2)n1` [S15N7 D8], the “Absolute DNA transfection efficiency” value is on record as 14.5%. For `CCCCCCCCCCCCCCCSc1nc(NCCCCCCC)nc(NCCCN2CCN(C)CC2)n1` [S15N7 D9], the “Absolute DNA transfection efficiency” value stood at 17.1%. With `CCCCCCCCCCCCCCCSc1nc(NCCCCCCC)nc(NCC2CCN(C)CC2)n1` [S15N7 D10] the figure was 33.4%; with `CCCCCCCCCCCCCCCSc1nc(NCCCCCCCC)nc(NCCN(C)C)n1` [S15N8 D1], 8.9%. On to `CCCCCCCCCCCCCCCSc1nc(NCCCCCCCC)nc(NCCN2CCOCC2)n1` [S15N8 D2], for which the “Absolute DNA transfection efficiency” value came out at 19.3%. Take `CCCCCCCCCCCCCCCSc1nc(NCCCCCCCC)nc(NCCN2CCCC2)n1` [S15N8 D3]: the “Absolute DNA transfection efficiency” value is recorded as 12.7%.
